What all share (type): cell-based, human
Data set [1] concerns prostate cancer cells. Kind of data set: Cell index over time, killing of prostate cancer cells. From the text: FIG. 21 is a graph illustrating cell index over time.
For data set [2], the system named is prostate cancer cells. Kind of data set: NK cell function against prostate cancer cells (flow cytometry). On the procedure: FIG. 13A is a graph showing percent of NK cells expressing IFNγ against prostate cancer cell targets. FIG. 13B is a graph illustrating the proportion of NK cells undergoing 3 or more rounds of division.
ADCC was measured in a flow cytometry assay by evaluating degranulation via CD107a (lysosomal-associated membrane protein LAMP-1) and intracellular IFNγ production. Upon thawing, normal donor and patient-derived PBMCs or ascites cells were rested overnight (37° C., 5% CO2) in RPMI 1640 media supplemented with 10% fetal calf serum (RPMI-10). The next morning, they were suspended with tumor-target cells or media after washing twice with RPMI-10. Cells were then incubated with TriKEs or controls for 10 min at 37° C. Fluorescein isothiocyate (FITC)-conjugated anti-human CD107a monoclonal antibody (BD Biosciences, San Jose, CA, USA) was then added. Following an hour 37° C. incubation, GolgiStop (1:1500, BD Biosciences) and GolgiPlug (1:1000, BD Biosciences) were added for 3 h. After washing with phosphate buffered saline, the cells were stained with PE/Cy 7-conjugated anti-CD56 mAb, APC/Cy 7-conjugated anti-CD16 mAb, and PE-CF594-conjugated anti-CD3 mAb (BioLegend, San Diego, CA, USA). Cells were incubated for 15 min at 4° C., washed, and fixed with 2% paraformaldehyde. Cells were then permeabilized using an intracellular perm buffer (BioLegend) to evaluate production of IFNγ through detection via aBV650 conjugated anti-human IFNγ antibody (BioLegend). Samples were washed and evaluated in an LSRII flow cytometer (BD Biosciences, San Jose, CA, USA).
As illustrated in FIGS. 12A-12D, 14A-14L and 15A-15D cam1615B7-H3 TriKE targets prostate cancer. The ability of the cam1615B7-H3 TriKE to improve NK cell activity against prostate cancer was tested. All of the prostate cancer cell lines tested expressed B7-H3. For these tests, normal donor PBMCs and PBMCs obtained from metastatic prostate cancer patients were used.
Background: In flow cytometry, cells or beads pass a laser one at a time.

Data set [3] relates to NK cells (CD45+CD56+CD3−) in PBMCs, with or without OVCAR8. As to the kind of experiment: Mass cytometry (CyTOF) of TriKE activated NK cells. On the procedure:
FIG. 31 illustrates high dimensional analysis of cam1615B7-H3 activated NK cells. Concatenated analysis of three donors PBMCs incubated alone, with 30 nM cam1615B7-H3 TriKE, with OVCAR8 tumor (2:1 E:T), or with 30 nM cam1615B7-H3 TriKE and OVCAR8 tumor. Data was visualized in viSNE (Cytobank) and gated on CD45+CD56+CD3-cells.
For mass cytometry (CyTOF) studies, PBMCs were incubated alone or with OVCAR8s at a 2:1 ratio+/−cam1615B7-H3 (30 nM) for 24 h. After harvesting samples, cells were counted, and viability was measured using trypan blue exclusion. Two hundred thousand cells from each donor were aliquoted into 5-mL polystyrene U-bottom tubes for barcoding and CyTOF staining. Cells were stained with Cisplatin (Fluidigm Product #201064, San Francisco, CA, USA), followed by barcoding using the Cell-ID 20-Plex Pd Barcoding Kit (Fluidigm Product #201060). After barcoding, all cells were combined into a single 5-mL polystyrene U-bottom tube and incubated in the surface marker antibody cocktail for 30 min at 4° C.
Following surface staining, cells were then fixed using 2% PFA. For intracellular staining, cells were permeabilized by incubation with Triton X 0.1% for 5 min at room temperature, followed by incubation with intracellular antibody cocktail for 30 min at 4° C. Stained cells were then incubated overnight with Cell-ID Intercalator (Fluidigm Product #201192A). The following morning cells were washed and run on the CyTOF 2 instrument. Wash steps were completed using either Maxpar PBS (Fluidigm Product #201058), Maxpar Cell Staining Buffer (Fluidigm Product #201068), or Millipure Water at 1600 RPM for 4 min. For custom tagged antibodies: Conjugation of heavy metals to a specific ScFv is conducted using the Maxpar antibody labeling kit (Fluidigm). The protocol involves partial antibody reduction using 0.5 M TCEP: Pierce Bond-Breaker TCEP Solution (Thermo Scientific Product #77720, Waltham, MA, USA), as well as comprehensive buffer exchange using centrifugal filter units of both 3 kDa and 50 kDa size (Millipore Product #UFC500396, UFC505096, Burlington, MA, USA). After conjugation of the antibody, yield is measured, and the final reagent is stored in antibody stabilizer (Boca Scientific Product #131 000, Westwood, MA, USA). The reagent is then titrated and verified against known flow cytometry antibodies. Data from the three donors was concatenated. FCS file concatenation was completed with a combination of Cytobank and Flowjo. All Visne analyses were carried out in Cytobank.
As illustrated in FIG. 31 high dimensional analysis of cam1615B7-H3 TriKE activated cells was performed. To broadly evaluate the phenotypic and functional effects of TriKE activation on NK cells, a custom, 42 parameter, CyTOF (mass cytometry) NK cell targeted panel was used. PBMCs were left untreated, incubated with cam1615B7-H3 TriKE for 24 h, incubated with tumor (OVCAR8s) for 24 h, or incubated with tumor and cam1615B7-H3 TriKE for 24 h. Cells were then stained, fixed, and run on a CyTOF2. Samples (three biologic replicates per condition) were concatenated, and data was visualized with viSNE, which uses all expression information to display localization of individual cells in a 2D plot in order to explore the multidimensional data (FIG. 31). The data indicated no changes in distributions of CD56^brights versus CD56^dims. Activation markers CD25 and CD69 were both induced with TriKE treatment, as was the chemokine receptor CXCR3. Granzyme B, involved in cytolytic activity of NK cells, was primed on effectors+TriKE, but in the presence of tumor targets (effectors+tumor+TriKE) these Granzyme B high cells disappeared, likely as a cause of ADCC driven specific degranulation. […] This also seemed to be the case with NKG2D, but the natural cytotoxicity receptors (NCR: NKp30, NKp44, and NKp46) were less affected.

Setting [4] is: effectors exposed to tumor in the presence of TriKE.

As for “B7-H3 TriKE: camelid nanobodies targeting CD16 and B7-H3 joined by IL-15 and two linkers; sequence table equates the name with cam1615B7-H3”, the “time to killing of prostate cancer cells after initiation of treatment” value in data set [1] is reported as “within a couple of hours”.

In the case of “cam1615B7-H3: second-generation TriKE: humanized camelid anti-CD16 VHH, human wild-type IL-15, anti-B7-H3 mAb 376.96 scFv; SEQ ID NO:1”, the “NK function (IFNγ) against prostate cancer cell targets vs IL-15 alone” value in data set [2] (compared to IL-15 alone) is “more potent at inducing NK function than IL-15 alone”. Further, in data set [2] (with prostate cancer cells), the “B7-H3 specificity of the signal” value is given as “specific to B7-H3” and the “TriKE-induced signal vs natural cytotoxicity signal” value was “stronger than that induced by a strong natural cytotoxicity signal”. Besides, the “distributions of CD56brights versus CD56dims” value in data set [3] (30 nM, 24 h) is given as “no changes”. Moreover, in data set [3] (30 nM, 24 h, TriKE treatment), the CD25 expression entry was “induced”, the CD69 expression result is “induced” and the CXCR3 expression result is “induced”. In data set [3] (setting [4]), the TIGIT entry was “did not seem as affected”; the “activating KIR (KIR2DS1 and KIR2DS4) expression” value is reported as “reduced in expression”; the “inhibitory KIR (KIR2DL1, KIR2DL3 and KIR3DL1) expression” value was “reduced in expression”; the “natural cytotoxicity receptors (NKp30, NKp44, NKp46)” value is recorded as “less affected”. For the same substance, the “Granzyme B” value in data set [3] (effectors+TriKE) is listed as “primed”. Moreover, in data set [3] (effectors+tumor+TriKE), the “Granzyme B high cells” value is given as “disappeared”.

For the origin of these results see patent US20250145715A1, “B7-H3 TARGETING FUSION PROTEINS AND METHODS OF USE THEREOF” (GT Biopharma, Inc., priority 2021, published 2025).
